Data from ChEMBL document CHEMBL1150600, “Callyspongynic acid, a polyacetylenic acid which inhibits alpha-glucosidase, from the marine sponge Callyspongia truncata” (J Nat Prod, 2002).
Activity calls are given as the source filed them. The rule behind the calls is not given here.

Columns and labels:
[1] = test system: alpha-glucosidase (Saccharomyces cerevisiae); assay: Inhibition of alpha-glucosidase at 100 ug/ml after 30 mins
[2] = target: T1, Cytosolic beta-glucosidase (Homo sapiens) (UniProt Q9H227); assay: Inhibition of beta-glucosidase at 100 ug/ml
T1 sequence (whole entry): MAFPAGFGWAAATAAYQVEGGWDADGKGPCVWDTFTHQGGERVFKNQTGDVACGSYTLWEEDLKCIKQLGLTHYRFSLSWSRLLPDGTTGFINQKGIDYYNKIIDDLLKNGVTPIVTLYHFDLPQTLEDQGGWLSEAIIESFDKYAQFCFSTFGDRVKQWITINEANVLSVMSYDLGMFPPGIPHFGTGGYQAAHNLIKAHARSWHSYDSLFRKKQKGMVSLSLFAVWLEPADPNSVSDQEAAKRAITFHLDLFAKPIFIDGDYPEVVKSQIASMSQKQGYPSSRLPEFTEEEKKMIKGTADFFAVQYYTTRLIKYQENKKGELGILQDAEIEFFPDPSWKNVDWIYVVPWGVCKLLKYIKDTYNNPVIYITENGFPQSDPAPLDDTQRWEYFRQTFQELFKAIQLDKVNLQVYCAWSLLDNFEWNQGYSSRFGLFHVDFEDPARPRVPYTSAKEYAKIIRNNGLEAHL

[3] = target: Prothrombin (Homo sapiens) (UniProt P00734); assay: Inhibition of thrombin at 100 ug/ml
[4] = Inhibition of trypsin at 100 ug/ml
[5] = target: T2, Beta-galactosidase (Homo sapiens) (UniProt P16278); assay: Inhibition of beta-galactosidase at 100 ug/ml
T2 sequence (whole entry): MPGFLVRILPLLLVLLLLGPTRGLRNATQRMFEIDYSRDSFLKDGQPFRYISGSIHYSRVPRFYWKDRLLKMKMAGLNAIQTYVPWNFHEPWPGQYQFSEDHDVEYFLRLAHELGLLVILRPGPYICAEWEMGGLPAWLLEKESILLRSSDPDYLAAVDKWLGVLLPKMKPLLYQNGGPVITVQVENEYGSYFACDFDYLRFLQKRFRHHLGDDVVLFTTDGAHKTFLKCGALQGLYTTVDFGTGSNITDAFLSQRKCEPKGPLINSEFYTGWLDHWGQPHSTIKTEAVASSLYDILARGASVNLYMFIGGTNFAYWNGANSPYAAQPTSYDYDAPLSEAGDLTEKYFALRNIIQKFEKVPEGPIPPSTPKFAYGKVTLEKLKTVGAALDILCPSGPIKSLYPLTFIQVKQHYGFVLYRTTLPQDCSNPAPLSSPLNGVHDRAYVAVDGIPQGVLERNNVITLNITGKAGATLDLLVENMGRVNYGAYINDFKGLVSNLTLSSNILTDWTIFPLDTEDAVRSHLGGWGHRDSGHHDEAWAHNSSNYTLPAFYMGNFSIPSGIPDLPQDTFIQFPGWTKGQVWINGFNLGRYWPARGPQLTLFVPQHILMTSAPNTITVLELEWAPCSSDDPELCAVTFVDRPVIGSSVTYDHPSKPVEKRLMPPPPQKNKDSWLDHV

Row | Activity [1] | Activity [2] | Activity [3] | Activity [4] | Activity [5] | SMILES
1 | inactive |  |  |  |  | C#C[C@@H](O)/C=C/CCCCCC#CC#CCCCC#CCCCC#CCCCCCC#CC(=O)OC
2 |  | inactive | inactive | inactive | inactive | C#C[C@@H](O)/C=C/CCCCCC#CC#CCCCC#CCCCC#CCCCCCC#CC(=O)O
3 | inactive |  |  |  |  | C#C/C=C\CCCC#CC#CCCCCCC/C=C\C#C
